As usually defined, the ΔTm is the change in melting temperature against a reference sample. One may read the EC50 as the concentration giving half of the maximal effect. Read a high EC50 as lower potency in that assay. One may read the IC50 as the midpoint of a concentration-inhibition curve. Higher therefore signals lower potency.

Series [1] has as its system HCT-116. The series can be described thus: Induction of apoptosis in human HCT-116 cells assessed as increase in cell count at 10 uM incubated for 48 hrs by Hoechst33342 staining based analysis. The series is classed as functional.
Series [2] relates to HCT-116. The series can be described thus: Antiproliferative activity against human HCT-116 cells assessed as reduction in cell viability at 10 uM incubated for 6 to 72 hrs by Hoechst33342 staining based analysis. The class given is functional. Particulars: time 6-72 hrs.
Series [3] has as its system HCT-116. Kind of series: Induction of cell cycle arrest in human HCT-116 cells assessed as accumulation of cells at G2/M phase incubated for 72 hrs by FUCCI based analysis. Particulars: dose 10.0 µM. The series is classed as functional.
Series [4] has as its target T1, Serine/threonine-protein kinase 4 (Homo sapiens) (UniProt Q13043).
T1 sequence (whole entry): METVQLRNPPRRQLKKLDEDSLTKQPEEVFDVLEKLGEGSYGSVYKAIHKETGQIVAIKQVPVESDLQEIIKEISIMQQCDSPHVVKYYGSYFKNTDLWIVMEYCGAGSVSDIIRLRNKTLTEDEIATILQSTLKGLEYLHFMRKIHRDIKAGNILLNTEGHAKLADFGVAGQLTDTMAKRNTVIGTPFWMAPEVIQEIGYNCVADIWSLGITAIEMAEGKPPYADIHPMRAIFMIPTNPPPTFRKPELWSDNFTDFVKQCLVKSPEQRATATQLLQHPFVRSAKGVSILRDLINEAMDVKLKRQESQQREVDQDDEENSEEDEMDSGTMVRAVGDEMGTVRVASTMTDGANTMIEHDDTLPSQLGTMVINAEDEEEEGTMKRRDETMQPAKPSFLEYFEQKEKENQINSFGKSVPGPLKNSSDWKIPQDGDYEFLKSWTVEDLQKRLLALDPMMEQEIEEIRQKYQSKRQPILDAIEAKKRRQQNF
Kind of series: Binding affinity to recombinant MST1 (unknown origin) assessed as change in melting temperature by DSF analysis. (In DSF a fluorescence change marks the thermal transition of the protein.)

The target in series [5] is Casein kinase I isoform epsilon (Homo sapiens, UniProt P49674). Kind of series: Inhibition of CK1e (unknown origin) expressed in HEK293T cells using NanoGlo as substrate incubated for 20 hrs by NanoBRET assay. The class given is cell-based. (In BRET a luciferase serves as donor, and the signal depends on an acceptor being close.)
The target of series [6] is T2, Serine/threonine-protein kinase Nek2 (Homo sapiens, UniProt P51955).
T2 sequence (P51955 whole entry): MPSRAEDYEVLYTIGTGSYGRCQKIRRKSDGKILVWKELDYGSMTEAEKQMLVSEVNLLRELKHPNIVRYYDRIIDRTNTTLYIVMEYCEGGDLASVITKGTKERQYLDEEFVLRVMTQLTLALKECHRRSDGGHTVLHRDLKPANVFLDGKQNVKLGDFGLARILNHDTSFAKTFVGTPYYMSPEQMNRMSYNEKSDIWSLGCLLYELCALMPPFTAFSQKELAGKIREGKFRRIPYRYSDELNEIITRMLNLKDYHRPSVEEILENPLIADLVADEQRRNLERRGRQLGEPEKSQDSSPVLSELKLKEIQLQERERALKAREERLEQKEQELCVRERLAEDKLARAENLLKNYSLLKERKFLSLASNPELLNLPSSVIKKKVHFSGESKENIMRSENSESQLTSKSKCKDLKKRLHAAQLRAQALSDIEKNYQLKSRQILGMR
The series can be described thus: Inhibition of NEK2 (unknown origin) expressed in HEK293T cells using NanoGlo as substrate incubated for 20 hrs by NanoBRET assay. The series is classed as cell-based.

Series [7] has as its target T3, Serine/threonine-protein kinase 3 (Homo sapiens) (UniProt Q13188).
T3 sequence (whole entry): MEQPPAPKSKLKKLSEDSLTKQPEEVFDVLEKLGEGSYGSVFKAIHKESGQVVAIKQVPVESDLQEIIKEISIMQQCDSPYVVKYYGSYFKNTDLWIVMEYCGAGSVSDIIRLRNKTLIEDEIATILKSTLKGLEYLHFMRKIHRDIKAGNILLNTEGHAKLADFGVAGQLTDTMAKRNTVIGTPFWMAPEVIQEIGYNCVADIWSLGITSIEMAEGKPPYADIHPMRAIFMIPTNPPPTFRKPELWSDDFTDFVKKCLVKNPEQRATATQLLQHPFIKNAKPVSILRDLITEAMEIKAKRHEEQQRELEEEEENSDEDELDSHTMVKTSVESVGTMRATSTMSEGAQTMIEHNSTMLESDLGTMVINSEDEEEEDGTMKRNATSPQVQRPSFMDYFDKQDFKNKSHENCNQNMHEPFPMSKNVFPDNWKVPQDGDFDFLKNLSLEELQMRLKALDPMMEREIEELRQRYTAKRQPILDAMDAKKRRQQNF
Kind of series: Binding affinity to recombinant MST2 (unknown origin) assessed as change in melting temperature by DSF analysis.

The subject of series [8] is HCT-116. The series can be described thus: Antiproliferative activity against human HCT-116 cells assessed as reduction in cell viability at 10 uM incubated for 48 hrs by Hoechst33342 staining based analysis. The class given is functional.
For series [9], the target named is T4, Serine/threonine-protein kinase 24 (Homo sapiens, UniProt Q9Y6E0). Kind of series: Inhibition of MST3 (unknown origin) expressed in lysed HEK293T cells using NanoGlo as substrate incubated for 20 hrs by NanoBRET assay. The class given is cell-based.
Target sequence in this assay (Q9Y6E0 whole entry): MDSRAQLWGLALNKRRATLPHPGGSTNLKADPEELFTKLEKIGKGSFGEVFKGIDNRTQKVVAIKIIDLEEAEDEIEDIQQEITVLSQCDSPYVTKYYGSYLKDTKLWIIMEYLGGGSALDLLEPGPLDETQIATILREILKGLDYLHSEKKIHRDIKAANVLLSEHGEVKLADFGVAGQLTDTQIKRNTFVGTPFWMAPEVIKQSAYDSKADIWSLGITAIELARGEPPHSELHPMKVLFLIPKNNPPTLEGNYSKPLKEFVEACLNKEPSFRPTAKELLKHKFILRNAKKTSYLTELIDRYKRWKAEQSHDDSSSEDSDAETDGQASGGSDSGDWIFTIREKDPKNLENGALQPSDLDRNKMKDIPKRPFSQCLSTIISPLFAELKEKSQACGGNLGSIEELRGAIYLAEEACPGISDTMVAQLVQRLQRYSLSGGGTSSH
Series [10] concerns the target T4, Serine/threonine-protein kinase 24. The series can be described thus: Binding affinity to recombinant MST3 (unknown origin) assessed as change in melting temperature by DSF analysis.
Target sequence in this assay (Q9Y6E0 whole entry, looked up): as the sequence (Q9Y6E0 whole entry) above
For series [11], the target named is T5, Serine/threonine-protein kinase 4 (Homo sapiens, UniProt Q13043).
T5 sequence (Q13043 whole entry): T1 sequence (whole entry)
Kind of series: Inhibition of MST1 (unknown origin) expressed in HEK293T cells using NanoGlo as substrate incubated for 20 hrs by NanoBRET assay. The class given is cell-based.

Series [12] concerns HCT-116. Kind of series: Induction of cell cycle arrest in human HCT-116 cells assessed as accumulation of cells at G1 phase at 10 uM incubated for 72 hrs by FUCCI based analysis. The series is classed as functional.
Series [13] concerns the target Tyrosine-protein kinase Fes/Fps (Homo sapiens, UniProt P07332). The series can be described thus: Inhibition of FES (unknown origin) expressed in HEK293T cells using NanoGlo as substrate incubated for 20 hrs by NanoBRET assay. The series is classed as cell-based.
Series [14] concerns the target T4, Serine/threonine-protein kinase 24. Kind of series: Inhibition of MST3 (unknown origin) expressed in intact HEK293T cells using NanoGlo as substrate incubated for 20 hrs by NanoBRET assay. The class given is cell-based.
Target sequence in this assay (Q9Y6E0 whole entry): as above
Series [15] addresses T6, Serine/threonine-protein kinase 26 (Homo sapiens, UniProt Q9P289). The series can be described thus: Inhibition of MST4 (unknown origin) expressed in HEK293T cells using NanoGlo as substrate incubated for 20 hrs by NanoBRET assay. The class given is cell-based.
Target sequence in this assay (Q9P289 whole entry): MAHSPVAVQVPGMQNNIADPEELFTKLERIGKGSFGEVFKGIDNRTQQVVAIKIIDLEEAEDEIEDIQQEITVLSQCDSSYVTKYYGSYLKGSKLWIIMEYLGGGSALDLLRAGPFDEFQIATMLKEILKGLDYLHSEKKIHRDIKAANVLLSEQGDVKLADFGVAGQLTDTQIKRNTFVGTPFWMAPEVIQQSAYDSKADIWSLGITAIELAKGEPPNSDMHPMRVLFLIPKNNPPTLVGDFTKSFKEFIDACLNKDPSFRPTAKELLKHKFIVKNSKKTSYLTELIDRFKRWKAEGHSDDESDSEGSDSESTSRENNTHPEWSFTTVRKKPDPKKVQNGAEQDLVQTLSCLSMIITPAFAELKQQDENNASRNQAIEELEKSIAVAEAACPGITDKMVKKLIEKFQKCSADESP
The nature of series [16]: Microsomal stability in Sprague-Dawley rat liver microsome incubated for 1 hr by HPLC analysis. Particulars: liver microsomes, read-out: Stability. The class given is ADME.
The target of series [17] is Serine/threonine-protein kinase SIK2 (Homo sapiens, UniProt Q9H0K1). The series can be described thus: Inhibition of SIK2 (unknown origin) expressed in HEK293T cells using NanoGlo as substrate incubated for 20 hrs by NanoBRET assay. The series is classed as cell-based.
The test system of series [18] is HCT-116. The series can be described thus: Induction of apoptosis in human HCT-116 cells assessed as effect on cell count at 1 uM incubated for 72 hrs by Hoechst33342 staining based analysis. The class given is functional.
The target in series [19] is Serine/threonine-protein kinase PAK 1 (Homo sapiens) (UniProt Q13153). The series can be described thus: Binding affinity to recombinant PAK1 (unknown origin) assessed as change in melting temperature by DSF analysis.
Series [20] deals with HCT-116. The series can be described thus: Antiproliferative activity against human HCT-116 cells assessed as reduction in cell viability at 1 to 10 uM incubated for 24 hrs by Hoechst33342 staining based analysis. Particulars: dose 1-10 µM. The class given is functional.
Series [21] has as its target T6, Serine/threonine-protein kinase 26. The series can be described thus: Binding affinity to recombinant MST4 (unknown origin) assessed as change in melting temperature by DSF analysis.
Target sequence in this assay (Q9P289 2-416 limits assumed): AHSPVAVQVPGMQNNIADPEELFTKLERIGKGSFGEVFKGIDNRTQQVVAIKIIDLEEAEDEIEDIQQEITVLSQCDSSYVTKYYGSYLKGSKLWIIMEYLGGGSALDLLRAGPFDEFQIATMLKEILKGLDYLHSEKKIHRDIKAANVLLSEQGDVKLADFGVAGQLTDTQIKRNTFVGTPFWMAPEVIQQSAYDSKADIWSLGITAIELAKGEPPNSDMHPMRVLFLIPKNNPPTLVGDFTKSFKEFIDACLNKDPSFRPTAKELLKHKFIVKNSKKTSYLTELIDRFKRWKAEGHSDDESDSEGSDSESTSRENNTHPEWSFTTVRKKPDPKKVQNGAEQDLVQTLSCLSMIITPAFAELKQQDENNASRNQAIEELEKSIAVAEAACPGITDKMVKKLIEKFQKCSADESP
Series [22] deals with T7, Serine/threonine-protein kinase 3 (Homo sapiens, UniProt Q13188).
T7 sequence (Q13188 whole entry): T3 sequence (whole entry)
Kind of series: Inhibition of MST2 (unknown origin) expressed in HEK293T cells using NanoGlo as substrate incubated for 20 hrs by NanoBRET assay. The series is classed as cell-based.

For series [23], the target named is T7, Serine/threonine-protein kinase 3.
Series [24] has as its target T5, Serine/threonine-protein kinase 4.

Activity calls are given as the source filed them. No cut-off for these calls is given here. A value given as a limit tells only on which side of the number the result lay.

Casein kinase I isoform epsilon, sequence (P49674 whole entry, canonical isoform): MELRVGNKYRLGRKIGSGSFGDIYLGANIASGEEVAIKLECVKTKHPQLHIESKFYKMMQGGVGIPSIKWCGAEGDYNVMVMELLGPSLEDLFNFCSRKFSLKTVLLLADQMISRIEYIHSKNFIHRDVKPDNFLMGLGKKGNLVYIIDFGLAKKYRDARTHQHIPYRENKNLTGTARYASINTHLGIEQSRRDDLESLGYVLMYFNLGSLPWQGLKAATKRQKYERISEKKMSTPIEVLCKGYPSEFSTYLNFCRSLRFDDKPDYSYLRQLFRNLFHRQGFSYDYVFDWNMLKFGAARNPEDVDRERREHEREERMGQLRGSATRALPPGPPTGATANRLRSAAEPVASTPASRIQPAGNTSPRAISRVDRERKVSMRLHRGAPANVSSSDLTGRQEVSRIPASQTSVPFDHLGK
Serine/threonine-protein kinase SIK2, sequence (Q9H0K1 whole entry): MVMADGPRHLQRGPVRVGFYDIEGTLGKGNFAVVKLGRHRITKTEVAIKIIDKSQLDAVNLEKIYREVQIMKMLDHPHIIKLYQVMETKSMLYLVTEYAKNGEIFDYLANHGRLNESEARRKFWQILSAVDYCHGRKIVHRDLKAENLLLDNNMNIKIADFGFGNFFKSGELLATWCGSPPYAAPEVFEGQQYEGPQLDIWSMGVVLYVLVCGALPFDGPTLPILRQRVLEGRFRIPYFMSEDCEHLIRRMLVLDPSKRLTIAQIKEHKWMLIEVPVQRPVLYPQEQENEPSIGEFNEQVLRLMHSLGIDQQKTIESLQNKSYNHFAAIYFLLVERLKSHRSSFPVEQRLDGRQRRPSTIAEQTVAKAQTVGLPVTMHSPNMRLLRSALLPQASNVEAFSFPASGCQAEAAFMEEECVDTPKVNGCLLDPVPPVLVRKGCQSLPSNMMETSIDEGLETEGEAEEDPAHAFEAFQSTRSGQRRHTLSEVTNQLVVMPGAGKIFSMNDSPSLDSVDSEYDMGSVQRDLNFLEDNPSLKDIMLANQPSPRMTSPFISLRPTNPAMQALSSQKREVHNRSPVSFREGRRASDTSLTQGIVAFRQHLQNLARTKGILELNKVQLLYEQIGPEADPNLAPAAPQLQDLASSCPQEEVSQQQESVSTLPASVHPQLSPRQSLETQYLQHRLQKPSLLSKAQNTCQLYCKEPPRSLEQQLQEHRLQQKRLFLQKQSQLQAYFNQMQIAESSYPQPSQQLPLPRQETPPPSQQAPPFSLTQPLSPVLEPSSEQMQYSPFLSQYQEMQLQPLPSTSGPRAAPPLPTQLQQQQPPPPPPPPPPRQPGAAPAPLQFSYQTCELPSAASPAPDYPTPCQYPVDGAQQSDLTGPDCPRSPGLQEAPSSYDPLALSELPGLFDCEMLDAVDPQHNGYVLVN
Tyrosine-protein kinase Fes/Fps, sequence (P07332 whole entry): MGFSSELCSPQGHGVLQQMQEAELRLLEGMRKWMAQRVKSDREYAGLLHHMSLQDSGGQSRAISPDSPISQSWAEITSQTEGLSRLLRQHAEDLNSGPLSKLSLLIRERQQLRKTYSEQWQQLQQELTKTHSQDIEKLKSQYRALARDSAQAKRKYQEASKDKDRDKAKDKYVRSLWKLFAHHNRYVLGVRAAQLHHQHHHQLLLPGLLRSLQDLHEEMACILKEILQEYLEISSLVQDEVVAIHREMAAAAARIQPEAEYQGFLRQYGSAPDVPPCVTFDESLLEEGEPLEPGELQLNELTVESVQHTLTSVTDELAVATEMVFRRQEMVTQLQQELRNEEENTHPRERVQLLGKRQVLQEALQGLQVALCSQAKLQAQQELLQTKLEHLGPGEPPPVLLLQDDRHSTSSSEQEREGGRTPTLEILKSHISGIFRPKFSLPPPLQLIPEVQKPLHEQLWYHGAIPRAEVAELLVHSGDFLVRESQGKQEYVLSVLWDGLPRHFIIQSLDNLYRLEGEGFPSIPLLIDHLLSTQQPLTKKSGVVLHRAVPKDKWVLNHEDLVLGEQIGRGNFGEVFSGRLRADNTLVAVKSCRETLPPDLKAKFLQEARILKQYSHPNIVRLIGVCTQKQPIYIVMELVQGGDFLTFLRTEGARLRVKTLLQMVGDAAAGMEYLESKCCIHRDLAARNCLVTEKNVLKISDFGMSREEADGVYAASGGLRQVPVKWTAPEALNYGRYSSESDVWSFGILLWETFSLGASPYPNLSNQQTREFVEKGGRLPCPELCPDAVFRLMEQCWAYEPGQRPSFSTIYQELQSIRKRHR
Serine/threonine-protein kinase PAK 1 (Homo sapiens), sequence (Q13153 whole entry): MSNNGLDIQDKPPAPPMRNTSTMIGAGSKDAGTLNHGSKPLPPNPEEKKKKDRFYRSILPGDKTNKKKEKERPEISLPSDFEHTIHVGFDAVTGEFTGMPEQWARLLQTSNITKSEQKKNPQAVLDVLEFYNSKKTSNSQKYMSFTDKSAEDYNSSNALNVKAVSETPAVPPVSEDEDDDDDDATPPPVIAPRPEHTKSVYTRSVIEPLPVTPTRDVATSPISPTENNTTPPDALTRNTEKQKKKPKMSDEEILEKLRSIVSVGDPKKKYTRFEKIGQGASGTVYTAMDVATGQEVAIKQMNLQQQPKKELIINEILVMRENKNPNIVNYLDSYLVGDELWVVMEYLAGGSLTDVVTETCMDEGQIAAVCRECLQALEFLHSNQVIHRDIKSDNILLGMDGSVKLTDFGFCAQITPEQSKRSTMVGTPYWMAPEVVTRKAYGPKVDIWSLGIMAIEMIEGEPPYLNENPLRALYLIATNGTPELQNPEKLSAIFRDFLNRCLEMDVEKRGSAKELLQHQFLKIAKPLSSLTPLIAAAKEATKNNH

As for `N#Cc1cccc(-c2c[nH]c3ncnc(N4CCOCC4)c23)c1`, the outcome with HCT-116 [1] was Active. In addition, the outcome in the series on HCT-116 [2] was inactive. The Activity result in the series with HCT-116 [3] is “Dose-Dependent Effect”.
As to `Cc1cccc(-c2ccc(-c3cc4cnc(NC(CO)CO)nc4n(CCCCN)c3=O)c(Cl)c2)n1`, the ΔTm was found to be 2.1 °C in series [4]; 4.6 °C in [7]; 10.6 °C in series [10]; 5.1 °C in [19]; 8.1 °C in [21]. Moreover, the EC50 in series [5] was 17600 nM; in [6] it was > 5000 nM; in series [9] it was 81 nM; in [11], > 50000 nM; in [13], > 50000 nM; in [14] it was 57 nM. Besides, the results for the EC50 in [15], in [17] and in series [22] were 583 nM, 7400 nM and > 50000 nM, respectively. Also, the Activity was 30% in the series with HCT-116 [8] and >90% in the series on HCT-116 [20]. Also, the outcome in the series on HCT-116 [2] was inactive. Moreover, the outcome in the series on HCT-116 [12] and with HCT-116 [18] was Active. In [16], the remaining at 1 h turned out to be 90%.
With `CN1C(=O)c2sccc2N(C)c2nc(Nc3ccc(S(N)(=O)=O)cc3)ncc21`, the values for the IC50 in series [23] and in [24] were 493 nM and 162 nM, respectively.

The values above are taken from ChEMBL document CHEMBL5528076, “Development of Selective Pyrido[2,3-d]pyrimidin-7(8H)-one-Based Mammalian STE20-Like (MST3/4) Kinase Inhibitors” (J Med Chem, 2024).
